# Measured values from PubChem BioAssay (NCI).
#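 How tested: cells in 96-well plates exposed to compound for 48 hours at five concentrations. GI50: concentration for 50% inhibition of growth. TGI: concentration producing complete growth inhibition.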
# Tests used:
# Assay in all cases: growth of human tumour cells (NCI), 48 h
# 786-0 renal = tested on: 786-0 renal
# A498 renal = tested on: A498 renal
# A549 NSCLC = tested on: A549 NSCLC
# ACHN renal = tested on: ACHN renal
# BT-549 breast = tested on: BT-549 breast
# CAKI-1 renal = tested on: CAKI-1 renal
# CCRF-CEM leukemia = tested on: CCRF-CEM leukemia
# COLO 205 colon = tested on: COLO 205 colon
# DU-145 prostate = tested on: DU-145 prostate
# EKVX NSCLC = tested on: EKVX NSCLC
# HCC-2998 colon = tested on: HCC-2998 colon
# HCT-116 colon = tested on: HCT-116 colon
# HCT-15 colon = tested on: HCT-15 colon
# HL-60(TB) leukemia = tested on: HL-60(TB) leukemia
# HOP-62 NSCLC = tested on: HOP-62 NSCLC
# HOP-92 NSCLC = tested on: HOP-92 NSCLC
# HS 578T breast = tested on: HS 578T breast
# HT29 colon = tested on: HT29 colon
# IGROV1 ovarian = tested on: IGROV1 ovarian
# K-562 leukemia = tested on: K-562 leukemia
# KM12 colon = tested on: KM12 colon
# LOX IMVI melanoma = tested on: LOX IMVI melanoma
# M14 melanoma = tested on: M14 melanoma
# MALME-3M melanoma = tested on: MALME-3M melanoma
# MCF7 breast = tested on: MCF7 breast
# MDA-MB-231 breast = tested on: MDA-MB-231 breast
# MDA-MB-435 = tested on: MDA-MB-435
# MOLT-4 leukemia = tested on: MOLT-4 leukemia
# NCI-H226 lung = tested on: NCI-H226 lung
# NCI-H23 lung = tested on: NCI-H23 lung
# NCI-H460 lung = tested on: NCI-H460 lung
# NCI-H522 lung = tested on: NCI-H522 lung
# NCI/ADR-RES ovarian = tested on: NCI/ADR-RES ovarian
# OVCAR-3 ovarian = tested on: OVCAR-3 ovarian
# OVCAR-4 ovarian = tested on: OVCAR-4 ovarian
# OVCAR-5 ovarian = tested on: OVCAR-5 ovarian
# OVCAR-8 ovarian = tested on: OVCAR-8 ovarian
# PC-3 prostate = tested on: PC-3 prostate
# RPMI-8226 leukemia = tested on: RPMI-8226 leukemia
# RXF 393 renal = tested on: RXF 393 renal
# SF-268 CNS = tested on: SF-268 CNS
# SF-295 CNS = tested on: SF-295 CNS
# SF-539 CNS = tested on: SF-539 CNS
# SK-MEL-2 melanoma = tested on: SK-MEL-2 melanoma
# SK-MEL-28 melanoma = tested on: SK-MEL-28 melanoma
# SK-MEL-5 melanoma = tested on: SK-MEL-5 melanoma
# SK-OV-3 ovarian = tested on: SK-OV-3 ovarian
# SN12C renal = tested on: SN12C renal
# SNB-19 CNS = tested on: SNB-19 CNS
# SNB-75 CNS = tested on: SNB-75 CNS
# SR leukemia = tested on: SR leukemia
# SW-620 colon = tested on: SW-620 colon
# T-47D breast = tested on: T-47D breast
# TK-10 renal = tested on: TK-10 renal
# U251 CNS = tested on: U251 CNS
# UACC-257 melanoma = tested on: UACC-257 melanoma
# UACC-62 melanoma = tested on: UACC-62 melanoma
# UO-31 renal = tested on: UO-31 renal
compound,measurement,setting,value
Cc1cc(Oc2ccccc2)ccc1Nc1ncnc2ccc(-c3cnc(Cl)c(NS(C)(=O)=O)c3)cc12,GI50,786-0 renal,2230 nM
same,TGI,786-0 renal,14000 nM
same,GI50,A498 renal,1380 nM
same,TGI,A498 renal,3970 nM
same,GI50,A549 NSCLC,2030 nM
same,TGI,A549 NSCLC,6160 nM
same,GI50,ACHN renal,2450 nM
same,TGI,ACHN renal,15500 nM
same,GI50,BT-549 breast,1160 nM
same,TGI,BT-549 breast,4500 nM
same,GI50,CAKI-1 renal,1040 nM
same,TGI,CAKI-1 renal,5980 nM
same,GI50,CCRF-CEM leukemia,1320 nM
same,TGI,CCRF-CEM leukemia,15600 nM
same,GI50,COLO 205 colon,1450 nM
same,TGI,COLO 205 colon,3780 nM
same,GI50,DU-145 prostate,2040 nM
same,TGI,DU-145 prostate,12100 nM
same,GI50,EKVX NSCLC,1490 nM
same,TGI,EKVX NSCLC,10600 nM
same,GI50,HCC-2998 colon,1580 nM
same,TGI,HCC-2998 colon,3750 nM
same,GI50,HCT-116 colon,2510 nM
same,TGI,HCT-116 colon,13300 nM
same,GI50,HCT-15 colon,1730 nM
same,TGI,HCT-15 colon,10700 nM
same,GI50,HL-60(TB) leukemia,1550 nM
same,TGI,HL-60(TB) leukemia,13700 nM
same,GI50,HOP-62 NSCLC,2840 nM
same,TGI,HOP-62 NSCLC,18300 nM
same,GI50,HOP-92 NSCLC,246 nM
same,TGI,HOP-92 NSCLC,1380 nM
same,GI50,HS 578T breast,587 nM
same,TGI,HS 578T breast,6810 nM
same,GI50,HT29 colon,1500 nM
same,TGI,HT29 colon,12100 nM
same,GI50,IGROV1 ovarian,227 nM
same,TGI,IGROV1 ovarian,1130 nM
same,GI50,K-562 leukemia,3580 nM
same,TGI,K-562 leukemia,> 100000 nM
same,GI50,KM12 colon,2170 nM
same,TGI,KM12 colon,7430 nM
same,GI50,LOX IMVI melanoma,964 nM
same,TGI,LOX IMVI melanoma,4000 nM
same,GI50,M14 melanoma,2040 nM
same,TGI,M14 melanoma,12900 nM
same,GI50,MALME-3M melanoma,612 nM
same,TGI,MALME-3M melanoma,3790 nM
same,GI50,MCF7 breast,282 nM
same,TGI,MCF7 breast,13100 nM
same,GI50,MDA-MB-231 breast,1620 nM
same,TGI,MDA-MB-231 breast,4220 nM
same,GI50,MDA-MB-435,1260 nM
same,TGI,MDA-MB-435,3480 nM
same,GI50,MOLT-4 leukemia,1510 nM
same,TGI,MOLT-4 leukemia,5150 nM
same,GI50,NCI-H226 lung,3660 nM
same,TGI,NCI-H226 lung,20100 nM
same,GI50,NCI-H23 lung,2180 nM
same,TGI,NCI-H23 lung,9560 nM
same,GI50,NCI-H460 lung,1710 nM
same,TGI,NCI-H460 lung,12500 nM
same,GI50,NCI-H522 lung,2300 nM
same,TGI,NCI-H522 lung,10300 nM
same,GI50,NCI/ADR-RES ovarian,3120 nM
same,TGI,NCI/ADR-RES ovarian,> 100000 nM
same,GI50,OVCAR-3 ovarian,855 nM
same,TGI,OVCAR-3 ovarian,2600 nM
same,GI50,OVCAR-4 ovarian,2150 nM
same,TGI,OVCAR-4 ovarian,10500 nM
same,GI50,OVCAR-5 ovarian,544 nM
same,TGI,OVCAR-5 ovarian,3660 nM
same,GI50,OVCAR-8 ovarian,3390 nM
same,TGI,OVCAR-8 ovarian,19000 nM
same,GI50,PC-3 prostate,1450 nM
same,TGI,PC-3 prostate,10500 nM
same,GI50,RPMI-8226 leukemia,2180 nM
same,TGI,RPMI-8226 leukemia,6070 nM
same,GI50,RXF 393 renal,1320 nM
same,TGI,RXF 393 renal,3840 nM
same,GI50,SF-268 CNS,1640 nM
same,TGI,SF-268 CNS,12600 nM
same,GI50,SF-295 CNS,1090 nM
same,TGI,SF-295 CNS,5430 nM
same,GI50,SF-539 CNS,1010 nM
same,TGI,SF-539 CNS,3620 nM
same,GI50,SK-MEL-2 melanoma,1390 nM
same,TGI,SK-MEL-2 melanoma,3770 nM
same,GI50,SK-MEL-28 melanoma,745 nM
same,TGI,SK-MEL-28 melanoma,5530 nM
same,GI50,SK-MEL-5 melanoma,1550 nM
same,TGI,SK-MEL-5 melanoma,3000 nM
same,GI50,SK-OV-3 ovarian,505 nM
same,TGI,SK-OV-3 ovarian,4200 nM
same,GI50,SN12C renal,2160 nM
same,TGI,SN12C renal,12500 nM
same,GI50,SNB-19 CNS,2200 nM
same,TGI,SNB-19 CNS,7070 nM
same,GI50,SNB-75 CNS,277 nM
same,TGI,SNB-75 CNS,3410 nM
same,GI50,SR leukemia,1770 nM
same,TGI,SR leukemia,5560 nM
same,GI50,SW-620 colon,2380 nM
same,TGI,SW-620 colon,13100 nM
same,GI50,T-47D breast,185 nM
same,TGI,T-47D breast,1370 nM
same,GI50,TK-10 renal,1790 nM
same,TGI,TK-10 renal,20800 nM
same,GI50,U251 CNS,2190 nM
same,TGI,U251 CNS,10500 nM
same,GI50,UACC-257 melanoma,1950 nM
same,TGI,UACC-257 melanoma,8260 nM
same,GI50,UACC-62 melanoma,625 nM
same,TGI,UACC-62 melanoma,2110 nM
same,GI50,UO-31 renal,604 nM
same,TGI,UO-31 renal,3650 nM
